Assay results taken from ChEMBL document CHEMBL1201862, “PubChem BioAssay data set” (2004).
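96-well plates; 48 h exposure; 5 concentrations. Endpoints by linear interpolation between flanking doses. Not reached: highest tested concentration assigned. GI50: concentration for 50% inhibition of growth.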 Calls of active or inactive are those of the source. No stated cut-off is given here; in the data, active = GI50 up to about 1.1 µM and inactive = higher.

How the values were obtained:
Assay in all cases: DTP human tumour cell line panel, 48 h
786-0 = tested on: 786-0
A498 = tested on: A498
A549 = tested on: A549
ACHN = tested on: ACHN
CAKI-1 = tested on: CAKI-1
CCRF-CEM = tested on: CCRF-CEM
COLO 205 = tested on: COLO 205
DLD-1 = tested on: DLD-1
DMS-114 = tested on: DMS-114
DMS-273 = tested on: DMS-273
EKVX = tested on: EKVX
HCC 2998 = tested on: HCC 2998
HCT-116 = tested on: HCT-116
HCT-15 = tested on: HCT-15
HL-60 = tested on: HL-60
HOP-18 = tested on: HOP-18
HOP-92 = tested on: HOP-92
HT-29 = tested on: HT-29
IGROV-1 = tested on: IGROV-1
K562 = tested on: K562
KM-20L2 = tested on: KM-20L2
LOX IMVI = tested on: LOX IMVI
LXFL 529 = tested on: LXFL 529
M14 = tested on: M14
M19-MEL = tested on: M19-MEL
MOLT-4 = tested on: MOLT-4
Malme-3M = tested on: Malme-3M
NCI-H226 = tested on: NCI-H226
NCI-H23 = tested on: NCI-H23
NCI-H522 = tested on: NCI-H522
OVCAR-3 = tested on: OVCAR-3
OVCAR-4 = tested on: OVCAR-4
OVCAR-8 = tested on: OVCAR-8
RPMI-8226 = tested on: RPMI-8226
RXF 393 = tested on: RXF 393
RXF 631 = tested on: RXF 631
SF-268 = tested on: SF-268
SF-295 = tested on: SF-295
SF-539 = tested on: SF-539
SK-MEL-28 = tested on: SK-MEL-28
SK-MEL-5 = tested on: SK-MEL-5
SK-OV-3 = tested on: SK-OV-3
SN12C = tested on: SN12C
SNB-19 = tested on: SNB-19
SNB-75 = tested on: SNB-75
SNB-78 = tested on: SNB-78
SR = tested on: SR
SW-620 = tested on: SW-620
U-251 = tested on: U-251
UACC-257 = tested on: UACC-257
UACC-62 = tested on: UACC-62
UO-31 = tested on: UO-31
HOP-62 = tested on: HOP-62
KM12 = tested on: KM12
NCI-H460 = tested on: NCI-H460
OVCAR-5 = tested on: OVCAR-5
TK-10 = tested on: TK-10
SK-MEL-2 = tested on: SK-MEL-2
XF498 = tested on: XF498

Measured: GI50

C/C(=N\NC(C)(C)C)c1sc(-c2nc(C)c(/C(C)=N/NC(C)(C)C)s2)nc1C
inactive: 786-0 > 100 µM | A498 > 100 µM | A549 > 100 µM | ACHN > 100 µM | CAKI-1 > 100 µM | CCRF-CEM > 100 µM | COLO 205 > 100 µM | DLD-1 > 100 µM | DMS-114 > 100 µM | DMS-273 > 100 µM | EKVX > 100 µM | HCC 2998 > 100 µM | HCT-116 > 100 µM | HL-60 > 100 µM | HOP-18 > 100 µM | HOP-92 > 100 µM | HT-29 > 100 µM | IGROV-1 > 100 µM | K562 > 100 µM | KM-20L2 > 100 µM | LOX IMVI > 100 µM | LXFL 529 > 100 µM | M14 > 100 µM | M19-MEL > 100 µM | MOLT-4 > 100 µM | Malme-3M > 100 µM | NCI-H226 > 100 µM | NCI-H23 > 100 µM | NCI-H522 > 100 µM | OVCAR-3 > 100 µM | OVCAR-4 > 100 µM | OVCAR-8 > 100 µM | RPMI-8226 > 100 µM | RXF 393 > 100 µM | RXF 631 > 100 µM | SF-268 > 100 µM | SF-295 > 100 µM | SF-539 > 100 µM | SK-MEL-28 > 100 µM | SK-MEL-5 > 100 µM | SK-OV-3 > 100 µM | SN12C > 100 µM | SNB-19 > 100 µM | SNB-75 8.32 µM | SNB-78 > 100 µM | SR > 100 µM | SW-620 > 100 µM | U-251 > 100 µM | UACC-257 > 100 µM | UACC-62 > 100 µM | UO-31 > 100 µM
> 100 µM: HCT-15

O=C(CCc1n[nH]c(=S)o1)Nc1cc(Cl)c(Cl)cc1Cl
22.2 µM: HCT-15
inactive: 786-0 22.5 µM | A498 36.9 µM | A549 67.8 µM | ACHN 40.5 µM | CAKI-1 27.2 µM | CCRF-CEM 31.6 µM | COLO 205 31.8 µM | DLD-1 29 µM | DMS-114 41.3 µM | DMS-273 24.3 µM | EKVX 36.9 µM | HCC 2998 > 100 µM | HCT-116 15.9 µM | HL-60 33.3 µM | HOP-18 58.7 µM | HOP-62 50.8 µM | HOP-92 48.8 µM | HT-29 25.8 µM | IGROV-1 34.6 µM | K562 18.9 µM | KM-20L2 45.8 µM | KM12 87.9 µM | LXFL 529 44.8 µM | M14 83.6 µM | M19-MEL > 100 µM | MOLT-4 45 µM | Malme-3M > 100 µM | NCI-H226 66.4 µM | NCI-H23 > 100 µM | NCI-H460 46.6 µM | NCI-H522 71.9 µM | OVCAR-3 41.8 µM | OVCAR-4 > 100 µM | OVCAR-5 54.3 µM | OVCAR-8 51.2 µM | RPMI-8226 20.5 µM | RXF 631 44.6 µM | SF-268 26.5 µM | SF-295 > 100 µM | SF-539 52.7 µM | SK-MEL-28 60.1 µM | SK-MEL-5 50.9 µM | SK-OV-3 > 100 µM | SN12C > 100 µM | SNB-19 > 100 µM | SNB-75 89.1 µM | SNB-78 > 100 µM | SW-620 12.9 µM | TK-10 42.5 µM | U-251 35.2 µM | UACC-257 > 100 µM | UACC-62 21.9 µM | UO-31 68.2 µM

C/C(CC(=O)NCCc1ccccc1)=N\NC(=O)C[n+]1ccccc1
> 100 µM: HCT-15
inactive: 786-0 > 100 µM | A498 > 100 µM | A549 > 100 µM | ACHN > 100 µM | CCRF-CEM > 10 µM | COLO 205 > 100 µM | DLD-1 > 100 µM | DMS-114 > 100 µM | DMS-273 > 100 µM | EKVX > 100 µM | HCC 2998 > 100 µM | HCT-116 > 100 µM | HL-60 > 100 µM | HOP-62 > 100 µM | HOP-92 > 100 µM | HT-29 > 100 µM | IGROV-1 > 100 µM | K562 > 100 µM | KM-20L2 > 100 µM | KM12 > 100 µM | LOX IMVI > 100 µM | LXFL 529 > 100 µM | M14 > 100 µM | M19-MEL > 100 µM | MOLT-4 > 100 µM | Malme-3M > 100 µM | NCI-H226 > 100 µM | NCI-H23 > 100 µM | NCI-H460 > 100 µM | NCI-H522 > 100 µM | OVCAR-3 > 100 µM | OVCAR-5 > 100 µM | OVCAR-8 > 100 µM | RPMI-8226 > 100 µM | RXF 393 > 100 µM | RXF 631 > 100 µM | SF-268 > 100 µM | SF-295 > 100 µM | SF-539 > 100 µM | SK-MEL-28 > 100 µM | SK-MEL-2 > 100 µM | SK-MEL-5 > 100 µM | SK-OV-3 > 100 µM | SNB-75 > 100 µM | SNB-78 > 100 µM | SW-620 > 100 µM | TK-10 > 100 µM | U-251 > 100 µM | UACC-257 > 100 µM | UACC-62 > 100 µM | UO-31 > 100 µM | XF498 > 100 µM
